{"source": "paper PMC6222476", "about": "(Molecules : A Journal of Synthetic Chemistry and Natural …, 2018)", "key": {"[1]": {"tested_on": "SK-MEL-2 human melanoma cancer cell line", "type": "cell-based", "details": "at the GI50 concentration, in comparison to control cells"}, "[2]": {"tested_on": "NIH/3T3 normal murine embryonic fibroblast cell line", "experiment": "in vitro", "type": "cell-based", "details": "SRB assay", "description": "(§1) All the newly synthesized compounds were screened for their in vitro anticancer activity against six cancer cell lines: SK-MEL-2, MCF-7, IMR-32, MG-63, HT-29 and Hep-G2 by SRB assay, using adriamycin as a standard drug. All the synthesized derivatives 4(a–n) were also tested for their cytotoxic effect on normal cell lines i.e., NIH/3T3 (murine embryonic fibroblast by the SRB assay method. The cell lines were grown in RPMI 1640 medium containing 10% fetal bovine serum and 2 mM L-glutamine. For the present screening experiments, cells were inoculated into 96 well microtiter plates in 90 µL at 5000 cells per well. After cell inoculation, the microtiter plates were incubated at 37 °C, 5% CO2, 95% air and 100% relative humidity for 24 h prior to addition of experimental drugs. Experimental drugs were solubilized in appropriate solvent to prepare stock of 10^−2 concentration. At the time of experiment four 10-fold serial dilutions were made using complete medium. Aliquots of 10 µL of these different drug dilutions were added to the appropriate micro-titer wells already containing 90 µL of medium, resulting in the required final drug concentrations. After compound addition, plates were incubated at standard conditions for 48 h. and assay was terminated by the addition of cold trichloroacetic acid (TCA). Cells were fixed in situ by the gentle addition of […] (final concentration, 10% TCA) and incubated for 60 min at 4 °C. The supernatant was discarded; the plates were washed five times with tap water and air dried.\n(§2) Sulforhodamine B (SRB) solution (50 µL) at 0.4% (w/v) in 1% acetic acid was added to each of the wells, and plates were incubated for 20 min at room temperature. After staining, unbound dye was recovered and the residual dye was removed by washing five times with 1% acetic acid. The plates were air dried. Bound stain was subsequently eluted with 10 mM trizma base, and the absorbance was read on an ELISA plate reader at a wavelength of 540 nm with 690 nm reference wavelength. All the tests were repeated in at least three independent experiments at the concentrations of 10, 20, 40 and 80 µg/mL [57]."}, "[3]": {"tested_on": "IMR-32 neuroblastoma cell line", "experiment": "cells", "type": "cell-based, human", "details": "SRB assay, 48 h", "description": "as §1, §2"}, "[4]": {"tested_on": "MCF-7 human breast cancer cell line", "experiment": "cells", "type": "cell-based", "details": "48 h", "description": "as §1, §2"}, "[5]": {"tested_on": "HT-29 human colon cancer cell line", "experiment": "cells", "type": "cell-based", "details": "for GI50: SRB assay, 48 h, HT-29; for anticancer activity compared with standard drug adriamycin, HT-29: HT-29 (human colon cancer) cell line", "description": "as §1, §2"}, "[6]": {"tested_on": "SK-MEL-2 human melanoma cancer cell line", "experiment": "cells", "type": "cell-based", "details": "SRB assay, 48 h, read-out: GI50 SKMEL-2", "description": "as §1, §2"}, "[7]": {"tested_on": "Hep-G2 human hepatoma cell line", "experiment": "cells", "type": "cell-based", "details": "for GI50: SRB assay, 48 h, Hep-G2", "description": "as §1, §2"}, "[8]": {"tested_on": "MG-63 human osteosarcoma cell line", "experiment": "cells", "type": "cell-based", "details": "SRB assay, 48 h", "description": "as §1, §2"}, "[9]": {"tested_on": "IMR-32 neuroblastoma cell line", "type": "cell-based, human", "details": "at the GI50 concentration, in contrast to control cells"}, "in vitro": {"experiment": "in vitro", "type": "cell-based", "details": "mouse; SRB assay, normal murine embryonic fibroblast cell line; read-out: GI50 NIH/3T3", "description": "as §1, §2"}}, "note": "Like-named read-outs stand apart in the source and are kept apart here.", "data": [{"smiles": "CCOP(=O)(OCC)C(NN=C1C(=O)Nc2ccccc21)c1ccc(O)c(OC)c1", "note": "(stereo not shown) [4g, Diethyl(4-hydroxy-3-methoxyphenyl)(2-(2-oxoindolin-3-ylidene)hydrazinyl)methylphosphonates]", "values": [{"measurement": "morphological changes in SK-MEL-2 cancer cell lines", "setting": "[1]", "result": "cell detachment, cell wall deformation, cell shrinkage and reduced number of viable cells"}, {"measurement": "GI50", "setting": "[2]", "result": "> 250", "unit": "µM"}, {"measurement": "GI50", "setting": "[3]", "result": "> 100", "unit": "µM"}, {"measurement": "GI50", "setting": "[4]; SRB assay", "result": "> 100", "unit": "µM"}, {"measurement": "GI50", "setting": "[5]", "result": 12.2, "unit": "µM"}, {"measurement": "GI50", "setting": "[6]", "result": 24, "unit": "µM"}, {"measurement": "GI50", "setting": "[7]", "result": 32, "unit": "µM"}, {"measurement": "GI50", "setting": "[8]", "result": "< 0.1", "unit": "µM"}]}, {"smiles": "CCOP(=O)(OCC)C(NN=C1C(=O)Nc2ccccc21)c1ccc(O)cc1", "note": "(stereo not shown) [4f, Diethyl(4-hydroxyphenyl)(2-(2-oxoindolin-3-ylidene)hydrazinyl)methylphosphonate]", "values": [{"measurement": "morphological changes in IMR-32 cancer cells", "setting": "[9]", "result": "cell detachment, cell wall deformation, cell shrinkage and reduced number of viable cells"}, {"measurement": "melting point", "result": "140 to 142", "unit": "°C"}, {"measurement": "GI50", "setting": "in vitro", "result": "> 250", "unit": "µM"}, {"measurement": "GI50", "setting": "[3]; Homo sapiens", "result": "< 0.1", "unit": "µM"}, {"measurement": "GI50", "setting": "[4]; Homo sapiens, MCF7, SRB assay", "result": "> 100", "unit": "µM"}, {"measurement": "anticancer activity compared with standard drug adriamycin, HT-29", "setting": "[5]", "result": "equipotent"}, {"measurement": "GI50", "setting": "[5]; Homo sapiens", "result": "< 0.1", "unit": "µM"}, {"measurement": "GI50", "setting": "[6]; Homo sapiens", "result": 51.6, "unit": "µM"}, {"measurement": "GI50", "setting": "[7]; Homo sapiens, HepG2", "result": 12.2, "unit": "µM"}, {"measurement": "GI50", "setting": "[8]; Homo sapiens", "result": "< 0.1", "unit": "µM"}]}, {"smiles": "CCOP(=O)(OCC)C(N/N=C1\\C(=O)Nc2ccccc21)c1ccc(O)c(C)c1", "note": "(stereo not shown) [4l, (Z)-Diethyl (4-hydroxy-3-methylphenyl)(2-(2-oxoindolin-3-ylidene)hydrazinyl)methylphosphonate]", "values": [{"measurement": "melting point", "result": "190 to 192", "unit": "°C"}, {"measurement": "GI50", "setting": "in vitro", "result": "> 250", "unit": "µM"}, {"measurement": "GI50", "setting": "[3]; Homo sapiens", "result": 89.8, "unit": "µM"}, {"measurement": "GI50", "setting": "[4]; Homo sapiens, MCF7, SRB assay", "result": 78.4, "unit": "µM"}, {"measurement": "anticancer activity compared with standard drug adriamycin, HT-29", "setting": "[5]", "result": "equipotent"}, {"measurement": "GI50", "setting": "[5]; Homo sapiens", "result": "< 0.1", "unit": "µM"}, {"measurement": "GI50", "setting": "[6]; Homo sapiens", "result": 76.4, "unit": "µM"}, {"measurement": "anticancer activity compared with standard drug Adriamycin, Hep-G2", "setting": "[7]; Hep-G2 (human hepatoma) cell line", "result": "equipotent"}, {"measurement": "GI50", "setting": "[7]; Homo sapiens, HepG2", "result": "< 0.1", "unit": "µM"}, {"measurement": "GI50", "setting": "[8]; Homo sapiens", "result": "< 0.1", "unit": "µM"}]}, {"smiles": "CCOP(=O)(OCC)C(N/N=C1\\C(=O)Nc2ccccc21)c1ccc([N+](=O)[O-])cc1", "note": "(stereo not shown) [4m, (Z)-Diethyl (4-nitrophenyl)(2-(2-oxoindolin-3-ylidene)hydrazinyl)methylphosphonate]", "values": [{"measurement": "melting point", "result": "172 to 174", "unit": "°C"}, {"measurement": "GI50", "setting": "in vitro", "result": "> 250", "unit": "µM"}, {"measurement": "GI50", "setting": "[3]; Homo sapiens", "result": 56.6, "unit": "µM"}, {"measurement": "GI50", "setting": "[4]; Homo sapiens, MCF7, SRB assay", "result": 77.2, "unit": "µM"}, {"measurement": "anticancer activity compared with standard drug adriamycin, HT-29", "setting": "[5]", "result": "equipotent"}, {"measurement": "GI50", "setting": "[5]; Homo sapiens", "result": "< 0.1", "unit": "µM"}, {"measurement": "GI50", "setting": "[6]; Homo sapiens", "result": 44.2, "unit": "µM"}, {"measurement": "GI50", "setting": "[7]; Homo sapiens, HepG2", "result": 13.3, "unit": "µM"}, {"measurement": "GI50", "setting": "[8]; Homo sapiens", "result": "< 0.1", "unit": "µM"}]}]}
